Laboratory results reported in patent US20220396597A1 (priority 2019, published 2022).

Tests used:
[1] = target: α1Q241L mutated GABAARs (UniProt P18507+P47870+P62813, Q268L); assay: GABA current in N2a cells transfected with α1Q241L, β2 and γ2 subunits; format: cell-based; conditions: 10 μM GABA; AlloP 50 nM, MQ-221 10 μM
[2] = test system: NMDAR; assay: NMDA-induced whole-cell currents in cultured hippocampal neurons (voltage clamp); format: cell-based, rat; conditions: 10 μM NMDA

α1Q241L mutated GABAARs, sequence (P62813 28-455 Q268L): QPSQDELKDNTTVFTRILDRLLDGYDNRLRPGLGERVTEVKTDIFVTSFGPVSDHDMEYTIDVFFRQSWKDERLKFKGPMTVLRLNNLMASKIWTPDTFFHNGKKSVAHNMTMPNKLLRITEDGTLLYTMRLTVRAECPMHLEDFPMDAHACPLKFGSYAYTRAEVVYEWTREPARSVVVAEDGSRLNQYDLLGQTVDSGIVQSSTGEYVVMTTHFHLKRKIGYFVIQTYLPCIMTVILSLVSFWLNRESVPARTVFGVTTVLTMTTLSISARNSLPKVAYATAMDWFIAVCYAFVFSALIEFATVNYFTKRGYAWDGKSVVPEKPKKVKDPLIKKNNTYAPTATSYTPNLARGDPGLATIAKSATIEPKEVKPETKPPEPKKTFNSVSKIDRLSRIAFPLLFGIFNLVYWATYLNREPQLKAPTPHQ
α1Q241L mutated GABAARs, sequence (P47870 25-512 limits assumed): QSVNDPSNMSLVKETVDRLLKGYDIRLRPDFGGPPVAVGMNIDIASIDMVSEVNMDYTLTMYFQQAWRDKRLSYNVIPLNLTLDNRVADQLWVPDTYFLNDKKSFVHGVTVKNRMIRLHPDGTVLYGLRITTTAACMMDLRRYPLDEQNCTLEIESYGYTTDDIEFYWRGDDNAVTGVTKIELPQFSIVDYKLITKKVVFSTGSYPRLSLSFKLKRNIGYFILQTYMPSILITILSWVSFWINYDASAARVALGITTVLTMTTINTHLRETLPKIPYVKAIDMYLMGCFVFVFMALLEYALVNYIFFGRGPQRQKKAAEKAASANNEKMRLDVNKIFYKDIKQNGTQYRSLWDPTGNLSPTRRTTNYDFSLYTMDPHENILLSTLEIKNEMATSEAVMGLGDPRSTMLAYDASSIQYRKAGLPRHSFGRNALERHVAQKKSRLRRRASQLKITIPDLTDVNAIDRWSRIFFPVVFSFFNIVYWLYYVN
α1Q241L mutated GABAARs, sequence (P18507 40-475): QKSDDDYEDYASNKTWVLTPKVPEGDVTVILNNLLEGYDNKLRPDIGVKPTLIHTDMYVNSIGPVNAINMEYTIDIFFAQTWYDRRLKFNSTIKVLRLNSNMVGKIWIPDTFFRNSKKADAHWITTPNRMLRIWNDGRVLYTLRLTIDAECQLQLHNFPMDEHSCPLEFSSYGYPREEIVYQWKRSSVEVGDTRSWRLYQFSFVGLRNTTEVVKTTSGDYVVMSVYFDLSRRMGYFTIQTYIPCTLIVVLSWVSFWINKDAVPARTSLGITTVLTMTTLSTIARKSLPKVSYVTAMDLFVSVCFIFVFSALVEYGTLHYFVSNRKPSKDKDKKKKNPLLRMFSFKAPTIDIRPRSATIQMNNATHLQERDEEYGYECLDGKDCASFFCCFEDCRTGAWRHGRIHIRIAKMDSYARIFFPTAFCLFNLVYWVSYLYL

Compound	Effect of the α1 Q241L mutation on potentiation of GABA current [1]	Action on closed NMDAR channels (pre-application in the absence of agonist) ([2]; 2.5 μM MQ-221, 300 μM 3α5βPS)	Inhibition of NMDAR function in the presence of agonist (co-application) ([2]; 300 μM 3α5βPS)
CC(=O)[C@H]1CC[C@H]2[C@@H]3CC[C@H]4C[C@H](O)CC[C@]4(C)[C@H]3CC[C@]12C [allopregnanolone, reference compound]	elimination of allopregnanolone (AlloP) potentiation		
pregnanolone sulfate [reference compound]		little effect on closed channels	strongly inhibited
